Test results taken from patent publication US12616203B2, “Use of 3-isoxazolidinones compounds as selective herbicides” (FMC Corporation, priority 2014, dated 2026).
“Also recorded” adds a separate entry of the source. Like-named read-outs stand apart in the source and are kept apart here.

Legend:
[1] = test system: Wild buckwheat; test: Ex15 PRE 2,4-DC + S-metolachlor, % control 28 DAT, Colby; assay type: in vivo, Polygonum convolvulus
Description: (§1) The weeds tested in this study were redroot pigweed (Amaranthus retroflexus, AMARE), Jimsonweed (Datura stramonium, DATST), black nightshade (Solanum nigrum, SOLNI), large crabgrass (Digitaria sanguinalis, DIGSA), Pennsylvania smartweed (Polygonum pensylvanicum, POLPY), horseweed (Conyza canadensis, ERICA), wild buckwheat (Polygonum convolvulus, POLCO). The crop tested was Corn (var. Viking).
(§2) To determine PRE efficacy and corn injury, five rates of each 2,4 DC (36.7% CS) and S-metolachlor (Dual II Magnum®, 82.4%) were applied either alone or as tank-mix. 2,4 DC was applied at 0, 125, 170, 210, or 250 g ai/ha and S-metolachlor was applied at 0, 267, 534, 801, or 1070 g ai/ha. Additional treatments included application of premix of pyroxasulfone plus fluthiacet-methyl (Anthem™ 23.3%) at 169.9 g ai/ha and tank-mix of mesotrione (Callisto®, 40%) at 123 g plus S-metolachlor at 1252 g. Treatments were applied just after the planting of large crabgrass, Jimsonweed, black nightshade, redroot pigweed, Pennsylvania smartweed, horseweed, wild buckwheat, and corn.
(§3) Flats were watered and fertilized routinely after treatment application. Each treatment was replicated three times. […] Corn injury was rated for bleaching and stunting.

[2] = test system: jimsonweed; test: as above; assay type: in vivo, Datura stramonium
Description: as §1, §2, §3

[3] = test system: weeds; Wheat and canola; test: Ex29 PRE greenhouse; assay type: in vivo; conditions: 28 DAT, weed, crop, rate in the words
Description: The tested weeds include Italian ryegrass (Lolium perenne. multiflorum, LOLMU), wild mustard (Sinapis arvensis, SINAR), annual bluegrass (Poa annua, POAAN), wild oat (Avena fatua, AVEFA), blackgrass (Alopecurus myosuroides, ALOMY), common lambsquarters (Chenopodium album, CHEAL), littleseed canarygrass (Phalaris minor, PHAMI), common chickweed (Stellaria media, STEME), corn poppy (Papaver rhoeas, PAPRH), redroot pigweed (Amaranthus retroflexus, AMARE), silky windgrass (Apera spica-venti, APSEV), wild buckwheat (Polygonum convolvulus, POLCO). The crops teased were Wheat and canola.
(§4) Treatments were applied before the emergence of Italian ryegrass, wild oat, wild buckwheat, blackgrass, littleseed canarygrass, common chickweed, common lambsquarters, corn poppy, silky windgrass, redroot pigweed, wild mustard, annual bluegrass, canola, and wheat. […] Flats were watered and fertilized routinely after treatment application.

[4] = test system: weeds; barley and wheat; test: Ex40 POST greenhouse; assay type: in vivo; conditions: rate in the words
Experimental: Treatments were applied to barley and wheat crops.
Non-ionic surfactant (NIS) was added to all treatments at 0.5% v/v. All plant species were direct seeded into 3″ plastic pots using metro-mix as growth media. At treatment common lambsquarters was 1.75″, common chickweed was 2″, wild mustard was 2.25″, wild oat was 5.5″, wild buckwheat was 2-5″, Italian ryegrass was 2-3″, wheat was 5.5″ and barley was 4.5″ in height. Plants were watered well before application and not watered 24 h after application. Plants were watered and fertilized routinely after treatment application. Each treatment was replicated four times. Treated flats were placed in randomized block design in the greenhouse.

[5] = test system: weeds; Wheat and canola; test: Ex35 PRE greenhouse; assay type: in vivo; conditions: rate in the words
Description: Crops screened were wheat and canola.

[6] = test system: wheat; assay type: in vivo; conditions: 14 DAT, POST, 2,4-DC 210 g ai/ha
Experimental: (§5) Treatments were applied to wheat and barley crops.
(§6) Nonionic surfactant was added at 0.5% v/v in all treatments. Treatments were applied to wheat (5.5″), barley (5″), wild oat (5.5″), common chickweed (2″), wild buckwheat (3″), and common lambsquarters (2″). All plant species were direct seeded into 3″ plastic pots using metro-mix as growth media and pots were watered well before application and watered 24 h after application. Plants were watered and fertilized routinely after treatment application. Each treatment was replicated four times.

[7] = test system: Barley; assay type: in vivo; conditions: 14 DAT
Experimental: as §5, §6

[8] = test system: weeds; canola, and wheat; test: Ex30 PRE greenhouse; assay type: in vivo
Description: as §4, with “oat,” for “oat, wild buckwheat,”

[9] = test system: weeds; test: Ex16 PRE greenhouse; assay type: in vivo; conditions: weed and rate in the words
Description: To determine PRE efficacy, five levels of 2,4 DC (36.7% CS) 0, 125, 170, 210, or 250 g ai/ha and five levels of pyroxasulfone (KIH485-85WG) 0, 50, 65, 80, or 95 g ai/ha were applied either alone or as tank-mix. Additional treatments consisted of premix of pyroxasulfone plus fluthiacet-methyl (Anthem™ 23.3%) at 169.9 g ai/ha, S-metolachlor (Dual II Magnum, 82.4%) at 1388 g, and tank-mix of mesotrione (Callisto, 40%) at 123 g plus S-metolachlor at 1252 g. […] Treatments were applied before the emergence of black nightshade, giant foxtail, green foxtail, yellow foxtail, large crabgrass, kochia, redroot pigweed, common ragweed, and barnyardgrass.
Flats were watered and fertilized routinely after treatment application. Each treatment was replicated three times.

[10] = test system: weeds; test: Ex10 PRE greenhouse; assay type: in vivo; conditions: 28 DAT, weed and rate in the words
[11] = test system: weeds; sweet corn, yellow corn, and sorghum; test: Ex31 PRE greenhouse; assay type: in vivo; conditions: weed and rate in the words
Description: Flats were watered and fertilized routinely after treatment application.

## CC1(C)CON(Cc2ccc(Cl)cc2Cl)C1=O [2,4-DC, 2-(2,4-dichlorophenyl)methyl-4,4-dimethyl-3-isoxazolidinone]
[1]; 2,4-DC alone 125 g ai/ha
  X: 15%
[1]; 2,4-DC alone 170 g ai/ha
  X: 43%
[1]; 2,4-DC alone 210 g ai/ha
  X: 30%
[1]; 2,4-DC alone 250 g ai/ha
  X: 32%
[2]; 2,4-DC alone 125 g ai/ha
  X: 37%
[2]; 2,4-DC alone 170 g ai/ha
  X: 40%
[2]; 2,4-DC alone 210 g ai/ha
  X: 48%
[2]; 2,4-DC alone 250 g ai/ha
  X: 53%
[3]
  weed control / crop safety in words: alone gave control of pigweed and Italian ryegrass at ≥200 g ai/ha, corn poppy and wild oat at 400 g, blackgrass at ≥100 g, and common chickweed at all rates
[4]
  weed control / crop safety in words: applied alone was safe at all rates on both wheat and barley
[5]
  weed control / crop safety in words: alone at 50 g ai/ha controlled (≥85% injury) common chickweed, at 100 g controlled blackgrass and wild buckwheat; also recorded: alone was safe on wheat and canola (≤10% injury) when applied at 50 and 100 g
[6]
  % crop injury for 2,4-DC alone: 31%
[7]; POST, 2,4-DC 125 g ai/ha
  % crop injury for 2,4-DC alone: 17%
[7]; POST, 2,4-DC 170 g ai/ha
  % crop injury for 2,4-DC alone: 17%
[7]; POST, 2,4-DC 210 g ai/ha
  % crop injury for 2,4-DC alone: 18%
[7]; POST, 2,4-DC 250 g ai/ha
  % crop injury for 2,4-DC alone: 23%
[8]; at 100 g
  injury to canola: 11%
[8]; at 200 g
  injury to wheat: 11%
[8]; weed and rate in the words
  weed control in words: alone gave control of pigweed, corn poppy, and Italian ryegrass at ≥200 g ai/ha, wild oat at 400 g, blackgrass at ≥100 g, and common chickweed at all rates
[9]
  weed control in words: alone controlled kochia at 210 g ai/ha, barnyardgrass and large crabgrass at 125 g, giant foxtail and green foxtail at 170 g
[10]
  weed control in words: alone at 250 g ai/ha controlled common lambsquarters
[11]
  weed control in words: alone did not control any weeds except barnyardgrass
